Measurements published in PMC5834492, “Antimycobacterial drug discovery using Mycobacteria-infected amoebae identifies anti-infectives and new molecular targets” (Scientific Reports, 2018).
pIC50: −log10 of the molar value. Read-outs that look alike come from different tables or passages of the source.

Key:
M. marinum GFP = type: cell-based, Mycobacterium marinum; settings: 10 µM; antibiotic assay
[1] = test system: M. marinum in BV2 microglial cells; type: cell-based, Mycobacterium marinum; settings: for BV2 / M. marinum normalised growth, control=1.00, mean / hit in BV2/M. marinum assay True/False: 10 µM
Mtb H37Rv in THP-1 = test system: Mtb H37Rv in THP-1; parameters: method as in Sorrentino et al, 2015; settings: ref Sorrentino et al, 2015, cited from earlier work; for Extracellular MIC90/ Inracellular MIC90: ratio
Mtb H37Rv = test system: Mtb H37Rv; parameters: method as in Sorrentino et al, 2015; settings: ref Sorrentino et al, 2015; cited from earlier work
M. marinum luxCDABE = type: cell-based, Mycobacterium marinum; settings: for M. marinum luxCDABE normalised growth, control=1.00, mean / M. marinum luxCDABE normalised growth, control = 1.00, mean: 10 µM
D. discoideum GFP-ABD = settings: 10 µM
[2] = test system: M. marinum in A. castellanii; type: cell-based, Mycobacterium marinum; settings: for A. castellanii / M. marinum normalised growth, control=1.00, mean / Hits A. castellanii/M. marinum assay True/False: 10 µM
[3] = THP1 / Mtb H37Rv infection assay

| SMILES | M. marinum GFP normalised growth, control=1.00, mean (M. marinum GFP) | pIC50 [1] | BV2 / M. marinum normalised growth, control=1.00, mean [1] | Intracelullar MIC90 in THP-1 (Mtb H37Rv in THP-1; [3]) | Extracellular MIC90/ Inracellular MIC90 (Mtb H37Rv in THP-1) | Extracellular MIC90 (Mtb H37Rv) | M. marinum luxCDABE normalised growth, control=1.00, mean (M. marinum luxCDABE) | D. discoideum GFP-ABD normalised growth, control=1.00, mean (D. discoideum GFP-ABD) | A. castellanii / M. marinum normalised growth, control=1.00, mean [2] | hit in BV2/M. marinum assay True/False [1] | Intracelullar MIC90 in THP-1 (Mtb H37Rv in THP-1; Mtb H37Rv-infected THP1 cells) | M. marinum luxCDABE normalised growth, control = 1.00, mean (M. marinum luxCDABE) | D. discoideum GFP-ABD normalised growth, control = 1.00, mean (D. discoideum GFP-ABD) | Hits A. castellanii/M. marinum assay True/False [2] | Antibiotic assays: M. marinum luxCDABE (M. marinum luxCDABE) | Intracellular infection assays: BV2 / M. marinum [1] | Intracellular infection assays: A. castellanii / M. marinum [2] |
| --- | --- | --- | --- | --- | --- | --- | --- | --- | --- | --- | --- | --- | --- | --- | --- | --- | --- |
| Cc1cc(OCC(=O)Nc2ccccc2)c2cc(Br)ccc2n1 [GW857165X] | 0.81 | 5.45 | 0.72 | 16.65 µM | 0.2 | 3.3 µM | 0.00 | 0.90 | 0.83 |  |  |  |  |  |  |  |  |
| O=C(C=Cc1cccs1)N1CCN(Cc2ccc(Br)s2)CC1 [GSK1744926A] | 0.13 | 5.38 | 0.70 | 1.85 µM | 1.03 | 1.9 µM | 0.00 | 0.50 | 0.74 |  |  |  |  |  |  |  |  |
| Cc1ccc2nc(C)c(C(=O)NCc3ccco3)n2c1 [GSK1829819A] | 0.08 | 5.41 | 0.37 | 0.61 µM | 2.13 | 1.3 µM | 0.00 | 1.08 | 0.66 | TRUE | 0.61 µM | 0,00 | 1,08 | FALSE |  |  |  |
| N#Cc1ccc2c(c1)CCN(CCCSc1ccnc3cc(C(F)(F)F)ccc13)CC2 [GSK254610A] | 0.05 |  | 0.50 |  |  |  | 0.00 | 0.88 | 0.87 | TRUE |  | 0,00 |  | FALSE |  |  |  |
| O=C(COc1cccc(F)c1)Nc1nc(-c2ccccn2)cs1 [GSK920684A] |  |  |  | 50 µM |  |  |  |  |  |  |  |  |  |  | 0.00 |  |  |
| Cc1ccc2[nH]c(C3CCCNC3)c(-c3ccncc3)c2c1 (stereo not drawn) [GSK1905227A] | 0.55 | 5.01 | 0.77 |  |  |  | 0.08 | 0.85 | 1.23 |  |  |  |  |  |  |  |  |
| CSc1ccc(-c2nnc(NC(=O)c3ccc(Cl)s3)o2)cc1 [GSK1650514A] | 0.91 | 4.71 | 0.90 | >50 µM |  |  | 0.00 | 1.16 | 1.31 |  |  |  |  |  |  |  |  |
| Clc1ccc(Nc2nc(-c3ccccn3)cs2)nc1 [GSK445886A] | 0.31 | 5.76 | 0.84 | >50 µM |  |  | 0.075 |  | 1.31 |  |  |  |  |  |  |  |  |
| COc1cc(CN2CCC3(C=Cc4ccccc43)CC2)cc2c1OCO2 [SB-354364] | 0.83 | 4.77 | 0.80 |  |  |  | 1.00 | 0.86 | 1.02 |  |  |  |  |  |  |  |  |
| O=C(O)C(F)(F)F.c1ccc(C[C@H]2CN(c3nccc(Oc4ccc(-n5ccnc5)cc4)n3)CCN2)cc1 [GSK1519001A] | 0.97 |  | 0.74 |  |  |  | 0.18 | 0.76 | 1.14 |  |  |  |  |  |  |  |  |
| CSc1ccc(C(=O)Nc2nc(-c3ccccn3)cs2)cc1 [GSK921295A] |  |  |  | 50 µM | 0.17 | 8.7 µM |  |  |  |  |  |  |  |  | 0.00 | 1.23 | 1.37 |
